In patent US20210309649A1, “SUBSTITUTED GLUTARIMIDE DERIVATIVES” (BASF SE, priority 2018, published 2021):

Assays:
Assay type in all cases: in vivo
[1] = system: Tetranychus kanzawai; assay: Red spider mite (Tetranychus kanzawai) cowpea bean spray test; settings: 72 h, read-out: mortality in comparison with untreated controls
Protocol: The active compound was dissolved at the desired concentration in a mixture of 1:1 (vol:vol) distilled water:acetone. Add surfactant (Kinetic HV) was added at a rate of 0.01% (vol/vol). The test solution was prepared at the day of use.
Potted cowpea beans of 4-5 days of age were cleaned with tap water and sprayed with 1-2 ml of the test solution using air driven hand atomizer. The treated plants were allowed to air dry and afterwards inoculated with 30 or more mites by clipping a cassava leaf section from rearing population. Treated plants were placed inside a holding room at about 25-27° C. and about 50-60% relative humidity. Percent mortality was assessed 72 hours after treatment.

[2] = system: Nephotettix virescens; assay: Rice green leafhopper (Nephotettix virescens) rice seedling spray test; settings: 72 h, read-out: mortality in comparison with untreated controls
Protocol: Rice seedlings were cleaned and washed 24 hours before spraying. The active compounds were formulated in 1:1 acetone:water (vol:vol), and 0.01% vol/vol surfactant (Kinetic HV) was added. Potted rice seedlings were sprayed with 5-6 ml test solution, air dried, covered with Mylar cages and inoculated with 10 adults. Treated rice plants were kept at about 28-29° C. and relative humidity of about 50-60%. Percent mortality was recorded after 72 hours.

[3] = system: Euschistus heros; assay: Neotropical brown stink bug (Euschistus heros) soybean pod spray test; settings: 120 h, read-out: mortality in comparison with untreated controls
Protocol: (§1) The active compound was dissolved at the desired concentration in a mixture of 1:1 (vol:vol) distilled water:acetone. Surfactant (Kinetic HV) was added at a rate of 0.01% (vol/vol). The test solution was prepared at the day of use.
Soybean pods were placed in microwavable plastic cups and inoculated with ten adult stage E. heros. Using a hand atomizer, approximately 1 ml solution is sprayed into each cup, insects and food present. A water source was provided (cotton wick with water). Each treatment was replicated 2-fold. Assay arenas were kept at about 25° C. Percent mortality was recorded after 5 days.

[4] = system: Myzus persicae; assay: Green peach aphid (Myzus persicae) systemic artificial diet test; settings: 72 h, read-out: mortality in comparison with untreated controls
Excerpt: For evaluating control of green peach aphid (Myzus persicae) through systemic means the test unit consisted of 96-well-microtiter plates containing liquid artificial diet under an artificial mem brane.
The compounds were formulated using a solution containing 75% v/v water and 25% v/v DMSO. Different concentrations of formulated compounds were pipetted into the aphid diet, using a custom built pipetter, at two replications.
After application, 5-8 adult aphids were placed on the artificial membrane inside the microtiter plate wells. The aphids were then allowed to suck on the treated aphid diet and incubated at about 23±1° C. and about 50±5% relative humidity for 3 days. Aphid mortality and fecundity was then visually assessed.

[5] = system: Megoura viciae; assay: Vetch aphid (Megoura viciae) leaf disk test; settings: foliar, 120 h, read-out: mortality in comparison with untreated controls
Protocol: For evaluating control of vetch aphid (Megoura viciae) through contact or systemic means the test unit consisted of 24-well-microtiter plates containing broad bean leaf disks.
The compounds were formulated using a solution containing 75% v/v water and 25% v/v DMSO. Different concentrations of formulated compounds were sprayed onto the leaf disks at 2.5 μl, using a custom built micro atomizer, at two replications.
After application, the leaf disks were air-dried and 5-8 adult aphids placed on the leaf disks inside the microtiter plate wells. The aphids were then allowed to suck on the treated leaf disks and incubated at about 23±1° C. and about 50±5% relative humidity for 5 days. Aphid mortality and fecundity was then visually assessed.

[6] = system: Anthonomus grandis; assay: Boll weevil (Anthonomus grandis) insect diet test; settings: 120 h, read-out: mortality in comparison with untreated controls
Protocol: For evaluating control of boll weevil (Anthonomus grandis) the test unit consisted of 96-well-microtiter plates containing an insect diet and 5-10 A. grandis eggs.
The compounds were formulated using a solution containing 75% v/v water and 25% v/v DMSO. Different concentrations of formulated compounds were sprayed onto the insect diet at 5 μl, using a custom built micro atomizer, at two replications.
After application, microtiter plates were incubated at about 25±1° C. and about 75±5% relative humidity for 5 days. Egg and larval mortality was then visually assessed.

[7] = system: Dichromothrips corbetti; assay: Orchid thrips (Dichromothrips corbetti) floral-immersion test; settings: 72 h, read-out: mortality in comparison with untreated controls
Protocol: Dichromothrips corbetti adults used for bioassay were obtained from a colony maintained continuously under laboratory conditions. For testing purposes, the test compound is diluted in a 1:1 mixture of acetone:water (vol:vol), plus Kinetic HV at a rate of 0.01% v/v.
Thrips potency of each compound was evaluated by using a floral-immersion technique. All petals of individual, intact orchid flowers were dipped into treatment solution and allowed to dry in Petri dishes. Treated petals were placed into individual re-sealable plastic along with about 20 adult thrips. All test arenas were held under continuous light and a temperature of about 28° C. for duration of the assay. After 3 days, the numbers of live thrips were counted on each petal. The percent mortality was recorded 72 hours after treatment.

[8] = system: Spodoptera eridania; assay: Southern armyworm (Spodoptera eridania) lima bean foliar spray test; settings: 96 h, read-out: mortality in comparison with untreated controls
Protocol: The active compounds were formulated in cyclohexanone as a 10,000 ppm solution supplied in tubes. The tubes were inserted into an automated electrostatic sprayer equipped with an atomizing nozzle and they served as stock solutions for which lower dilutions were made in 50% acetone:50% water (v/v). A nonionic surfactant (Kinetic®) was included in the solution at a volume of 0.01% (v/v).
Lima bean plants (variety Sieva) were grown 2 plants to a pot and selected for treatment at the 1st true leaf stage. Test solutions were sprayed onto the foliage by an automated electrostatic plant sprayer equipped with an atomizing spray nozzle. The plants were dried in the sprayer fume hood and then removed from the sprayer. Each pot was placed into perforated plastic bags with a zip closure. About 10 to 11 armyworm larvae were placed into the bag and the bags zipped closed. Test plants were maintained in a growth room at about 25° C. and about 20-40% relative humidity for 4 days, avoiding direct exposure to fluorescent light (24 hour photoperiod) to prevent trapping of heat inside the bags. Mortality and reduced feeding were assessed 4 days after treatment, compared to untreated control plants.

[9] = system: Halyomorpha halys; assay: Brown marmorated stink bug (Halyomorpha halys) spray test; settings: in Glycine max, 120 h, read-out: mortality in comparison with untreated controls
Protocol: as §1
Row peanuts and soybean seeds were placed into microwavable plastic cups and inoculated with five adult stage H. halys. Using a hand atomizer, approximately 1 ml solution is sprayed into each cup, insects and food present. A water source was provided (cotton wick with water).
Each treatment is replicated 4-fold. Assay arenas are kept at about 25° C. Percent mortality was recorded after 5 days.

[10] = system: Heliothis virescens; assay: Tobacco budworm (Heliothis virescens) insect diet test; settings: 120 h, read-out: mortality in comparison with untreated controls
Protocol: For evaluating control of tobacco budworm (Heliothis virescens) the test unit consisted of 96-well-microtiter plates containing an insect diet and 15-25 H. virescens eggs.
The compounds were formulated using a solution containing 75% v/v water and 25% v/v DMSO. Different concentrations of formulated compounds were sprayed onto the insect diet at 10 μl, using a custom built micro atomizer, at two replications.
After application, microtiter plates were incubated at about 28±1° C. and about 80±5% relative humidity for 5 days. Egg and larval mortality was then visually assessed.

[11] = system: Nezara viridula; assay: Green soldier stink bug (Nezara viridula) soybean pod spray test; settings: 120 h, read-out: mortality in comparison with untreated controls
Protocol: The active compound was dissolved at the desired concentration in a mixture of 1:1 (vol:vol) distilled water:acetone. Surfactant (Kinetic HV) was added at a rate of 0.01% (vol/vol). The test solution was prepared at the day of use. Soybean pods were placed in glass Petri dishes lined with moist filter paper and inoculated with ten late 3rd instar N. viridula. Using a hand atomizer, approximately 2 ml solution is sprayed into each Petri dish. Assay arenas were kept at about 25° C. Percent mortality was recorded after 5 days.

[12] = system: Plutella xylostella; assay: Diamond back moth (Plutella xylostella) cabbage leaf dip test; settings: foliar, 72 h, read-out: mortality in comparison with untreated controls
Protocol: The active compound was dissolved at the desired concentration in a mixture of 1:1 (vol:vol) distilled water:aceteone. Surfactant (Kinetic HV) was added at a rate of 0.01% (vol/vol). The test solution was prepared at the day of use.
Leaves of cabbage were dipped in test solution and air-dried. Treated leaves were placed in petri dishes lined with moist filter paper and inoculated with ten 3rd instar larvae. Mortality was recorded 72 hours after treatment. Feeding damages were also recorded using a scale of 0-100%.

CN1C(=O)CC[C@@H](NC(=O)c2ccc(C3=NOC(c4cc(Cl)c(F)c(Cl)c4)(C(F)(F)F)C3)cc2Cl)C1=O (stereo partly drawn) [Compound 1-1, 2-chloro-4[5-(3,5-dichloro-4-fluoro-phenyl)-5-(trifluoromethyl)-4H-isoxazol-3-yl]-N-[(3R)-1-methyl-2,6-dioxo-3-piperidyl]benzamide]
> 75%: mortality at 300 ppm [1] | mortality at 300 ppm [2] | mortality at 500 ppm [3] | mortality at 2500 ppm [4] | mortality at 2500 ppm [5] | mortality at 2500 ppm [6] | mortality at 300 ppm [7] | mortality at 10 ppm [8] | mortality at 100 ppm [9] | mortality at 2500 ppm [10] | mortality at 300 ppm [11] | mortality at 300 ppm [12]

Cc1cc(C2=NOC(c3cc(Cl)cc(Cl)c3)(C(F)(F)F)C2)ccc1C(=O)N[C@@H]1CCC(=O)N(CC(F)F)C1=O (stereo partly drawn) [Compound 1-18, 4-[5-(3,5-dichlorophenyl)-5-(trifluoromethyl)-4H-isoxazol-3-yl]-N-[(3R)-1-(2,2-difluoroethyl)-2,6-dioxo-3-piperidyl]-2-methyl-benzamide]
> 75%: mortality at 300 ppm [1] | mortality at 300 ppm [2] | mortality at 500 ppm [3] | mortality at 2500 ppm [4] | mortality at 2500 ppm [5] | mortality at 2500 ppm [6] | mortality at 300 ppm [7] | mortality at 100 ppm [9] | mortality at 2500 ppm [10] | mortality at 300 ppm [11] | mortality at 300 ppm [12]
